According to patent US20260224571A1, “AZACYCLOALKANE COMPOUND AND PHARMACEUTICAL COMPOSITION, AND USE THEREOF” (Prime Gene Therapeutics Co., Ltd., priority 2023, published 2026):
Counter-ions that a name gives are not always drawn.

Columns and labels:
[1] = system: phosphorylation of myosin light chain T18/S19; experiment: In Cell Western for phosphorylation of myosin light chain in A7r5 cells; format: cell-based; conditions: rat smooth muscle cell line A7r5, 1 hour with compound, phospho-MLC-T18/S19; read-out: cellular activity IC50
Description: The rat smooth muscle cell line A7r5 was used, and the A7r5 cell culture conditions were DMEM containing 10% FBS. Phspho-MLC-T18/S19 specific antibody and a second detection antibody were used to detect the phosphorylation level of myosin light chain by In Cell Western. Cells treated with positive compounds were used as positive controls, while the group without compounds but with compound solvents was used as negative controls. DRAQ5 stained cell nuclei were used as internal references. GraphPad Prism 7.0 software was used, and fitting was carried out by using a non-linear regression curve with varying slopes to determine the absolute IC50 value.
On the first day, A7r5 cells were resuspended in serum-free medium and seeded into 384 wells of PDL coated transparent black plates at a density of 5000 cells per well. Serum starvation culture was performed for 4 hours, and the cells were incubated with the compound in serum-free medium for 1 hour. 50 μL of 8% PFA (polyformaldehyde) was added to each well and fixed at room temperature for 1 hour. The liquid in the wells was discard and 90 μL of ice methanol was added to each well to permeabilize the cells at 4° C. for 1 hour. Then, PBST (0.1% Tween20-PBS) was added using an automatic separator to wash three times. After patting the plate for drying, 50 μL blocking solution was added to each well for sealing at room temperature for 1 hour. The phspho-MLC-T18/S19 specific antibody was diluted with the blocking solution at a ratio of 1:200. After adding 20 μL to each well, incubation was carried out overnight at 4° C. with a sealed film.
On the second day, the liquid in the wells was discarded and PBST was added using an automatic separator to wash the plate 5 times. After patting the plate for drying, the second detection antibody was diluted with blocking solution at a ratio of 1:800 and DRAQ5 at a ratio of 1:1000. After adding 20 μL to each well, incubation was carried out at room temperature for 1 hour. Then, the liquid in the wells was discarded and PBST was added using an automatic separator to wash the plate 3 times, followed by adding ddH2O to wash the plate 3 times. After patting the plate for drying, it was scanned using a LICOR Odyssey near-infrared imaging scanner.

ROCK1 = ROCK1 (Homo sapiens, UniProt Q13464); experiment: ROCK1 kinase enzymatic activity (HTRF, STK2 substrate); format: biochemical; conditions: ROCK1 kinase reacted at room temperature for 20 minutes
Chain of ROCK1 (Q13464 whole entry): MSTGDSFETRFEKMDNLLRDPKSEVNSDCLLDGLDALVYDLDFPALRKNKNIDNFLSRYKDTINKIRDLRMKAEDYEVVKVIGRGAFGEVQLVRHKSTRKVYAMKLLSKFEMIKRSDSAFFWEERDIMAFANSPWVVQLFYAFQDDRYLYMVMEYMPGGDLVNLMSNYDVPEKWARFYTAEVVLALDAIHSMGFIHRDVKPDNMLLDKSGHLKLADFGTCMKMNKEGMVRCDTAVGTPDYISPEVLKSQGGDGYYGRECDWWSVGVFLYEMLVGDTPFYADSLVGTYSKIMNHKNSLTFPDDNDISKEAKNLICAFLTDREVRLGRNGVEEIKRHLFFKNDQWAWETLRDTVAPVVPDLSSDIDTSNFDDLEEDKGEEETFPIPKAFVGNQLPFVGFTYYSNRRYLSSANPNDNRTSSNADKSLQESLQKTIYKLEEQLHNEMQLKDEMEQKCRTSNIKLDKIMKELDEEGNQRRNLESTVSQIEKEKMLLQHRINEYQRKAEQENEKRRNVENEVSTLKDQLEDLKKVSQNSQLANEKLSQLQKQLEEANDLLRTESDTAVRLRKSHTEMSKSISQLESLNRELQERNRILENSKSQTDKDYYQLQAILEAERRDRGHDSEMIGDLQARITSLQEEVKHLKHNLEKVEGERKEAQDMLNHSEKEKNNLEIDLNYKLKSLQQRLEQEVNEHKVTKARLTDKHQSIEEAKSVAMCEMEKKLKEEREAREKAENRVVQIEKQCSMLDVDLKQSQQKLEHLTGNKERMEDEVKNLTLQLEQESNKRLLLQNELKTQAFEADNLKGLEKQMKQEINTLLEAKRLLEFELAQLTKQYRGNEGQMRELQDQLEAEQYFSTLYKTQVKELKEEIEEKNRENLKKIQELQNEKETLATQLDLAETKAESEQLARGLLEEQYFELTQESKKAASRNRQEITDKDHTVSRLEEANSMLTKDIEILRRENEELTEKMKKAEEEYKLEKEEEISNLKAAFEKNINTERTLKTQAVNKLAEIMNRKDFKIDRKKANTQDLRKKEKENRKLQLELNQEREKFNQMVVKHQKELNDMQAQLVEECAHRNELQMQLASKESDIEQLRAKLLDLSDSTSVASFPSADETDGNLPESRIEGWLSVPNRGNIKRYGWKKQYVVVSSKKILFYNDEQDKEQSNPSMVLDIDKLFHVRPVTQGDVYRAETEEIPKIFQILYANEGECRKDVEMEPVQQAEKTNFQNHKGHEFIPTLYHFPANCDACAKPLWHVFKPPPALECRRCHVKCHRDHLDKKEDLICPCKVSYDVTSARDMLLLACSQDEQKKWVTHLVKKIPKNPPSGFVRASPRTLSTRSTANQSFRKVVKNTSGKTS
Description: (§1) The kinase activity data was expressed by comparing the kinase activity of the test compound and that of the blank group (containing only DMSO), and the IC50 value was obtained by curve fitting using Prism software (GraphPad7.0).

ROCK2 = ROCK2 (Homo sapiens, UniProt O75116); experiment: ROCK2 kinase enzymatic activity (HTRF, STK2 substrate); format: biochemical; conditions: ROCK2 kinase reacted at room temperature for 30 minutes
Chain of ROCK2 (O75116 whole entry): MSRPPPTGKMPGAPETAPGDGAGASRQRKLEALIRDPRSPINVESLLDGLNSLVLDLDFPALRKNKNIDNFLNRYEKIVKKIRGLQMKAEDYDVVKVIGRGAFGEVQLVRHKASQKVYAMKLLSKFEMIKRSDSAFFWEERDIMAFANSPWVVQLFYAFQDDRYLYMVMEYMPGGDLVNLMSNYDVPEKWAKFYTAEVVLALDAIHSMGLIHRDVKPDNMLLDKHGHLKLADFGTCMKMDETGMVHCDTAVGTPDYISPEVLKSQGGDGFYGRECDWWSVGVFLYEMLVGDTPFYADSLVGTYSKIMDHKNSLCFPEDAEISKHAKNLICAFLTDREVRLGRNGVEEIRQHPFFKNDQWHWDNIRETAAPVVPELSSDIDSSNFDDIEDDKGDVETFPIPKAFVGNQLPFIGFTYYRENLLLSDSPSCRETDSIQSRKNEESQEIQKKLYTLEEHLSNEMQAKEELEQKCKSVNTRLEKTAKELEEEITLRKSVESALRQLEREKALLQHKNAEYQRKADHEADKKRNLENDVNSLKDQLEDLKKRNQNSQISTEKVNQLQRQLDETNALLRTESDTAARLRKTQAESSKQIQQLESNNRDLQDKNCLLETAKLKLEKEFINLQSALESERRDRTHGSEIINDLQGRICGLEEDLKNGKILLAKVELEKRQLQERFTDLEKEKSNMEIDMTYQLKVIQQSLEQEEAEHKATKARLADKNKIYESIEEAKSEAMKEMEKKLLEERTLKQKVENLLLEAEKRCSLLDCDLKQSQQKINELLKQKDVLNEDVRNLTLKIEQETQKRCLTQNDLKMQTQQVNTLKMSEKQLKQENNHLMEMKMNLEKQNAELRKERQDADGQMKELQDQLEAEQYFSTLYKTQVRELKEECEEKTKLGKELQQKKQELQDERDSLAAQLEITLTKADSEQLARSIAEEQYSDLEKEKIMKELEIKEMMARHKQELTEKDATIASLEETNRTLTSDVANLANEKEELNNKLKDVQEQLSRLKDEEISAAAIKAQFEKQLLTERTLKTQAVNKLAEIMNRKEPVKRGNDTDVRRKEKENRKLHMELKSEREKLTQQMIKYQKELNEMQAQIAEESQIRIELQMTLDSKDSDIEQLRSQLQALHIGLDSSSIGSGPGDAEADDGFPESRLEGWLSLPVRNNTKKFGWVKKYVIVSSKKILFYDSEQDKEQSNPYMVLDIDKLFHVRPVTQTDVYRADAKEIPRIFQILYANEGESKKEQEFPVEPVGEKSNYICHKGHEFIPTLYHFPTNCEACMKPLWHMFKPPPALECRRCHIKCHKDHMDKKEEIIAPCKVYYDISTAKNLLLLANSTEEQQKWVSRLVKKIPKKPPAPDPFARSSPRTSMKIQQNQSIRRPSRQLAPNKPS
Description: as §1

SMILES: N#CCC1(n2cc(-c3ncnc4[nH]ccc34)c(N)n2)CN(S(=O)(=O)CC(F)(F)F)C1 [Example 1, 2-(3-(3-amino-4-(7-H-pyrrolo[2,3-d]pyrimidin-4-yl)-1H-pyrazol-1-yl)-1-((2,2,2-trifluoroethyl)sulfonyl)azetidine-3-yl)acetonitrile]
- IC50 [1]: 5010 nM
- IC50 (ROCK1): < 10 nM
- IC50 (ROCK2): < 10 nM

SMILES: N#CCC1(n2cc(-c3ncnc4[nH]ccc34)c(N)n2)CN(S(=O)(=O)C(F)(F)F)C1 [Example 2, 2-(3-(3-amino-4-(7H-pyrrolo[2,3-d]pyrimidin-4-yl)-1H-pyrazol-1-yl)-1-((trifluoromethyl)sulfonyl)azetidine-3-yl)acetonitrile]
- IC50 [1]: 11 nM
- IC50 (ROCK1): < 5 nM
- IC50 (ROCK2): < 5 nM

SMILES: CS(=O)(=O)N1CCC(CC#N)(n2cc(-c3ncnc4[nH]ccc34)c(N)n2)C1 (stereo not drawn) [Example 3, 2-(3-(3-amino-4-(7H-pyrrolo[2,3-d]pyrimidin-4-yl)-1H-pyrazol-1-yl)-1-(methylsulfonyl)pyrrolidin-3-yl)acetonitrile]
- IC50 [1]: 178 nM
- IC50 (ROCK1): < 5 nM
- IC50 (ROCK2): < 5 nM

SMILES: CC(=O)Nc1nn(C2(CC#N)CN(S(=O)(=O)C(F)(F)F)C2)cc1-c1ncnc2[nH]ccc12 [Example 5]
- IC50 [1]: 951 nM
- IC50 (ROCK1): < 5 nM
- IC50 (ROCK2): < 5 nM

SMILES: CCNc1nn(C2(CC#N)CN(S(=O)(=O)C(F)(F)F)C2)cc1-c1ncnc2[nH]ccc12 [Example 6, 2-(3-(3-(ethylamino)-4-(7H-pyrrolo[2,3-d]pyrimidin-4-yl)-1H-pyrazol-1-yl)-1-((trifluoromethyl)sulfonyl)azetidine-3-yl)acetonitrile]
- IC50 [1]: 181 nM
- IC50 (ROCK1): < 5 nM
- IC50 (ROCK2): < 5 nM

SMILES: CN(C)CCNc1nn(C2(CC#N)CN(S(=O)(=O)C(F)(F)F)C2)cc1-c1ncnc2[nH]ccc12 [Example 7, 2-(3-(3-((2-(dimethylamino)ethyl)amino)-4-(7H-pyrrolo[2,3-d]pyrimidin-4-yl)-1H-pyrazol-1-yl)-1-((trifluoromethyl)sulfonyl)azetidine-3-yl)acetonitrile]
- IC50 [1]: 132 nM
- IC50 (ROCK1): < 5 nM
- IC50 (ROCK2): < 5 nM

SMILES: CS(=O)(=O)CS(=O)(=O)N1CC(CC#N)(n2cc(-c3ncnc4[nH]ccc34)c(N)n2)C1 [Example 8]
- IC50 [1]: 152 nM
- IC50 (ROCK1): < 5 nM
- IC50 (ROCK2): < 5 nM

SMILES: N#CCNC(=O)N1CC(CC#N)(n2cc(-c3ncnc4[nH]ccc34)c(N)n2)C1 [Example 18, 3-(3-amino-4-(7H-pyrrolo[2,3-d]pyrimidin-4-yl)-1H-pyrazol-1-yl)-N,3-bis(cyanomethyl)azetidine-1-formamide]
- IC50 [1]: 4110 nM
- IC50 (ROCK1): < 5 nM
- IC50 (ROCK2): < 5 nM

SMILES: COc1nsc(NC(=O)N2CC(CC#N)(n3cc(-c4ncnc5[nH]ccc45)c(N)n3)C2)n1 [Example 19, 3-(3-amino-4-(7H-pyrrolo[2,3-d]pyrimidin-4-yl)-1H-pyrazol-1-yl)-3-(cyanomethyl)-N-(3-methoxy-1,2,4-thiadiazol-5-yl)azetidine-1-formamide]
- IC50 [1]: > 10000 nM
- IC50 (ROCK1): < 10 nM
- IC50 (ROCK2): < 10 nM

SMILES: N#CCC1(n2cc(-c3ncnc4[nH]ccc34)c(N)n2)CN(C(=O)[C@H]2C[C@@H]2F)C1 [Example 31, 2-(3-(3-amino-4-(7H-pyrrolo[2,3-d]pyrimidin-4-yl)-1H-pyrazol-1-yl)-1-((1R, 2S)-2-fluorocyclopropane-1-carbonyl)azetidine-3-yl)acetonitrile]
- IC50 [1]: 381 nM
- IC50 (ROCK1): < 5 nM
- IC50 (ROCK2): < 5 nM

SMILES: N#CCC1(n2cc(-c3ncnc4[nH]ccc34)c(N)n2)CN(C(=O)[C@@H]2CC2(F)F)C1 [Example 34, (S)-2-(3-(3-amino-4-(7H-pyrrolo[2,3-d]pyrimidin-4-yl)-1H-pyrazol-1-yl)-1-(2,2-difluorocyclopropane-1-carbonyl)azetidine-3-yl)acetonitrile]
- IC50 [1]: 551 nM
- IC50 (ROCK1): < 10 nM
- IC50 (ROCK2): < 10 nM

SMILES: CN=S(C)(=O)N1CC(CC#N)(n2cc(-c3ncnc4[nH]ccc34)c(N)n2)C1 (stereo not drawn) [Example 37, 2-(3-(3-amino-4-(7H-pyrrolo[2,3-d]pyrimidin-4-yl)-1H-pyrazol-1-yl)-1-(N,S-dimethylsulfonylimino)azetidine-3-yl)acetonitrile]
- IC50 [1]: 1590 nM
- IC50 (ROCK1): < 50 nM
- IC50 (ROCK2): < 50 nM

SMILES: CCS(=N)(=O)N1CC(CC#N)(n2cc(-c3ncnc4[nH]ccc34)c(N)n2)C1 (stereo not drawn) [Example 38, 2-(3-(3-amino-4-(7H-pyrrolo[2,3-d]pyrimidin-4-yl)-1H-pyrazol-1-yl)-1-(ethylsulfonylimino)azetidine-3-yl)acetonitrile]
- IC50 [1]: 3130 nM
- IC50 (ROCK1): < 5 nM
- IC50 (ROCK2): < 5 nM

SMILES: N#CCC1(n2cc(-c3ncnc4[nH]ccc34)c(N)n2)CN(S(=O)(=O)NCC(F)(F)F)C1 [Example 40, 3-(3-amino-4-(7H-pyrrolo[2,3-d]pyrimidin-4-yl)-1H-pyrazol-1-yl)-3-(cyanomethyl)-N-(2,2,2-trifluoroethyl)azetidine-1l-sulfonamide]
- IC50 [1]: 1570 nM
- IC50 (ROCK1): < 10 nM
- IC50 (ROCK2): < 10 nM

SMILES: CCNS(=O)(=O)N1CC(CC#N)(n2cc(-c3ncnc4[nH]ccc34)c(N)n2)C1 [Example 41, 3-(3-amino-4-(7H-pyrrolo[2,3-d]pyrimidin-4-yl)-1H-pyrazol-1-yl)-3-(cyanomethyl)-N-ethylazetidine-1-sulfonamide]
- IC50 [1]: 91 nM
- IC50 (ROCK1): < 10 nM
- IC50 (ROCK2): < 10 nM

SMILES: N#CCC1(n2cc(-c3ncnc4[nH]ccc34)c(N)n2)CN(S(N)(=O)=O)C1 [Example 45, 3-(3-amino-4-(7H-pyrrolo[2,3-d]pyrimidin-4-yl)-1H-pyrazol-1-yl)-3-(cyanomethyl)azetidine-1-sulfonamide]
- IC50 [1]: 579 nM
- IC50 (ROCK1): < 5 nM
- IC50 (ROCK2): < 5 nM

SMILES: N#CCNS(=O)(=O)N1CC(CC#N)(n2cc(-c3ncnc4[nH]ccc34)c(N)n2)C1 [Example 50, 3-(3-amino-4-(7H-pyrrolo[2,3-d]pyrimidin-4-yl)-1H-pyrazol-1-yl)-N,3-bis(cyanomethyl)azetidine-1-sulfonamide]
- IC50 [1]: 98 nM
- IC50 (ROCK1): < 10 nM
- IC50 (ROCK2): < 10 nM

SMILES: N#CCC1(n2cc(-c3ncnc4[nH]ccc34)c(O)n2)CN(C(=O)NCC(F)(F)F)C1 [Example 55, 3-(cyanomethyl)-3-(3-hydroxyl-4-(7H-pyrrolo[2,3-d]pyrimidin-4-yl)-1H-pyrazol-1-yl)-N-(2,2,2-trifluoroethyl)azetidine-1-formamide]
- IC50 [1]: > 10000 nM
- IC50 (ROCK1): < 50 nM
- IC50 (ROCK2): > 100 nM

SMILES: N#CCC1(n2cc(-c3ncnc4[nH]ccc34)c(C(N)=O)n2)CN(C(=O)NCC(F)(F)F)C1 [Example 61, 1-(3-(cyanomethyl)-1-((2,2,2-trifluoroethyl)carbamoyl)azetidine-3-yl)-4-(7H-pyrrolo[2,3-d]pyrimidin-4-yl)-1H-pyrazol-3-formamide]
- IC50 [1]: > 10000 nM
- IC50 (ROCK1): > 100 nM
- IC50 (ROCK2): > 100 nM

SMILES: CNC(=O)c1nn(C2(CC#N)CN(S(=O)(=O)CC(F)(F)F)C2)cc1-c1ncnc2[nH]ccc12 [Example 62, 1-(3-(cyanomethyl)-1-((2,2,2-trifluoroethyl)sulfonyl)azetidine-3-yl)-N-methyl-4-(7H-pyrrolo[2,3-d]pyrimidin-4-yl)-1H-pyrazol-3-formamide]
- IC50 [1]: > 10000 nM
- IC50 (ROCK1): > 100 nM
- IC50 (ROCK2): > 100 nM

SMILES: Cn1cc(Nc2cc(-c3cn(C4(CC#N)CN(S(C)(=O)=O)C4)nc3N)ncn2)cn1 [Example 69]
- IC50 [1]: > 10000 nM
- IC50 (ROCK1): > 100 nM
- IC50 (ROCK2): > 100 nM

SMILES: CCS(=O)(=O)N1CC(CC#N)(n2cc(-c3cc(-c4cnn(C)c4)nc4ccnn34)c(N)n2)C1 [Example 82]
- IC50 [1]: > 10000 nM
- IC50 (ROCK1): > 100 nM
- IC50 (ROCK2): > 100 nM

SMILES: CC(N)CS(=O)(=O)N1CC(CC#N)(n2cc(-c3ncnc4[nH]ccc34)c(N)n2)C1 (stereo not drawn) [Example 86, 2-(3-(3-amino-4-(7H-pyrrolo[2,3-d]pyrimidin-4-yl)-1H-pyrazol-1-yl)-1-((2-aminopropyl)sulfonyl)azetidine-3-yl)acetonitrile]
- IC50 (ROCK1): < 5 nM
- IC50 (ROCK2): < 5 nM

SMILES: C[C@H](N)CS(=O)(=O)N1CC(CC#N)(n2cc(-c3ncnc4[nH]ccc34)c(N)n2)C1 [Example 87, (S)-2-(3-(3-amino-4-(7H-pyrrolo[2,3-d]pyrimidin-4-yl)-1H-pyrazol-1-yl)-1-((2-aminopropyl)sulfonyl)azetidine-3-yl)acetonitrile trifluoroacetate salt]
- IC50 [1]: 678 nM
- IC50 (ROCK1): < 5 nM
- IC50 (ROCK2): < 5 nM

SMILES: Cc1ccc(C(=O)OCc2ccc([C@@H](CN)C(=O)Nc3ccc4cnccc4c3)cc2)c(C)c1 [Netarsudil, reference compound]
- IC50 [1]: 288 nM
